Measurements reported in patent US6133311A, “Method for preventing or treating elevated blood lipid level-related diseases by administering natural phenolic compounds” (priority 1998, dated 2000).

Legend:
[1] = tested on: liver cells around the central vein; assay: fatty liver: proportion of abnormal fat-containing cells in the liver of rabbits; format: in vivo, New Zealand White rabbits; conditions: 6 weeks; for A: Proportion of abnormal fat-containing liver cells (grade): 1% cholesterol diet plus 0.1% compound (Lovastatin 1 mg/kg), mean of grades 1+ to 4+, Control 3.2 ± 0.3; for inhibition of the formation of fatty liver: 1% cholesterol diet
Description: (§1) 30 three-month-old male New Zealand White rabbits (Yeonam Horticulture and Animal Husbandry College, Korea), each weighing about 2.5 to 2.6 kg, were raised under a condition of temperature 20+2° C., relative humidity 55±5%, and photoperiod 12L/12D. The rabbits were divided into 5 groups and 5 groups of rabbits were fed with 5 different diets, i.e., RC4 diet (Oriental Yeast Co., Japan) containing 1% cholesterol (Control group, 1); 1% cholesterol plus 1 mg/kg Lovastatin® (Merck, U.S.A.) (Lovastatin® group, 2); 1% cholesterol plus 0.1% tannin (3); 1% cholesterol plus 0.1% gallic acid (4); and 1% cholesterol plus 0.1% ellagic acid (5), respectively. RC4 diet comprises 7.6% moisture, 22.8% crude protein, 2.8% crude fat, 8.8% crude ash, 14.4% crude cellulose and 43.6% soluble nitrogen-free substances. Tannin, gallic acid and ellagic acid were purchased from Sigma Chemical Co. (St. Louis, Mo.).
(§2) The rabbits were fed for 6 weeks while being allowed free access to the diets and water.
(Step 5) Prevention of Hepatic Diseases

ACAT = biological target: T1, ACAT (Rattus norvegicus, UniProt Q7TQM4); assay: ACAT inhibition in liver microsomes of fed rats; format: biochemical; conditions: liver microsomes of rats fed 0.1% compound, vs Control
T1 construct: microsomes were separated from liver tissues to be used as an enzyme source; from tissue; host or cells: rat liver microsomes
T1 sequence (Q7TQM4 1-524): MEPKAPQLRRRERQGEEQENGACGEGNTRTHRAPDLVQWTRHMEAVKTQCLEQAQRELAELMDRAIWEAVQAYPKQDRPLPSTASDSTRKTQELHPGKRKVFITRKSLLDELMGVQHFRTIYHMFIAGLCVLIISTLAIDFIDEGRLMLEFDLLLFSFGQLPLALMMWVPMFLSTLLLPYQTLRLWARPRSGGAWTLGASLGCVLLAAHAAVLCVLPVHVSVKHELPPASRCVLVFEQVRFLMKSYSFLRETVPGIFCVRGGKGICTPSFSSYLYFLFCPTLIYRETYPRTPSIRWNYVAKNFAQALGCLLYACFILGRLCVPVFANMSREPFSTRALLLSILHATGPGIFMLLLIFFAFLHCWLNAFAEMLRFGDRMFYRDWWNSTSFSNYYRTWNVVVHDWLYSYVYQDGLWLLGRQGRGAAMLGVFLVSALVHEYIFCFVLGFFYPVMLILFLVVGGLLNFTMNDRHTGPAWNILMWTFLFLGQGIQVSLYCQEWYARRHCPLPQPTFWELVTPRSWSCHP
Description: Activity of Tannin or gallic acid in ACAT Inhibition
To determine the effect of feeding tannin or gallic acid to rats on the activity of ACAT, microsomes were separated from liver tissues to be used as an enzyme source.
1 g each of the livers taken from each group of rats of Example 2 was homogenized in 5 ml of homogenization medium (0.1 M KH2 PO4, pH 7.4, 0.1 mM EDTA and 10 mM β-mercaptoethanol). The homogenate was centrifuged at 3,000xg for 15 min. at 4° C. and the supernatant thus obtained was centrifuged at 15,000xg for 15 min. at 4° C. to obtain a supernatant. The supernatant was put into an ultracentrifuge tube (Beckman) and centrifuged at 100,000 xg for 1 hour at 4° C. to obtain microsomal pellets, which were then suspended in 3 ml of the homogenization medium and centrifuged at 100,000 xg for 1 hour at 4° C. […] The protein concentration of the resulting suspension was determined by Lowry's method and then adjusted to 4 to 8 mg/ml. […]
200 μl of the resulting supernatant was put in a scintillation bottle and 4 ml of scintillation fluid (Lumac) was added thereto. The mixture was assayed for radioactivity with 1450 Microbeta liquid scintillation counter (Wallacoy, Finland). ACAT activity was calculated as picomoles of cholesteryl oleate synthesized per min. per mg protein (pmoles/min/mg protein) The result is shown in Table III.

[2] = chemical analysis of blood of rabbits fed a high-cholesterol diet; format: in vivo, New Zealand White rabbits; conditions: for TG (triglyceride): Control 56 ± 38; for TC (total cholesterol): Control 1143 ± 260
Description: Effect of Tannin, Gallic acid or Ellagic acid in an Animal
(Step 1) Administration of tannin, gallic acid or ellagic acid to rabbits
as §1, §2
(Step 2) Chemical Analysis of Blood
After six weeks, the rabbits were anesthetized with an intramuscular injection of ketamine (50 mg/kg) in the femoral region and sacrificed. A blood sample was taken from the heart of each rabbit, allowed to stand for 2 hours and centrifuged at 3,000 rpm for 15 minutes and the supernatant serum was separated and stored in a freezer before use.
The chemical analysis of blood was carried out by employing a blood chemical analyzer (CIBA Corning 550 Express, USA) to determine the changes in GOT, GPT, γGTP, total cholesterol, HDL-cholesterol and triglyceride levels.

[3] = rabbits, 1% cholesterol diet plus 0.1% compound (Lovastatin 1 mg/kg), 6 weeks

| Compound | A: Proportion of abnormal fat-containing liver cells (grade) [1] | inhibition of the formation of fatty liver [1] | % Inhibition on ACAT activity (ACAT) [%] | effect on the liver function (adverse) ([2]; general statement) | γGTP ([2]; rabbits, 1% cholesterol diet plus 0.1% compound (Lovastatin 1 mg/kg), 6 weeks, Control 4.2 ± 0.9) [IU/l] | TG (triglyceride) [2, 3] [mg/dL] | GPT ([2]; rabbits, 1% cholesterol diet plus 0.1% compound (Lovastatin 1 mg/kg), 6 weeks, Control 65 ± 9) [IU/l] | GOT ([2]; rabbits, 1% cholesterol diet plus 0.1% compound (Lovastatin 1 mg/kg), 6 weeks, Control 77 ± 8) [IU/l] | TC (total cholesterol) [2, 3] [mg/dL] | lipid metabolism and liver function ([2]; rabbits, 6 weeks) | effect on the liver function (adverse) ([2]; rabbit, in vivo) |
| --- | --- | --- | --- | --- | --- | --- | --- | --- | --- | --- | --- |
| O=C(O)c1cc(O)c(O)c(O)c1 [Gallic acid, gallic acid] | 2.7 ± 0.4 | can significantly inhibit the formation of fatty liver | 42.1 | do not adversely affect on the liver function | 7.0 ± 2 | 27 ± 11 | 20 ± 10 | 60 ± 9 | 1150 ± 100 | can improve |  |
| tannin | 2.7 ± 0.4 | significantly inhibit the formation of fatty liver | 41.7 |  |  | 25 ± 10 |  |  | 1120 ± 211 | can improve | do not adversely affect on the liver function |
